{"source": "patent US11820766B2", "about": "“Monoacylglycerol lipase modulators” (Janssen Pharmaceutica NV, priority 2018, dated 2023)"}
{"target": "T1, human MGL from HeLa cells (Homo sapiens, UniProt Q99685)", "T1 construct": "combining endogenously expressed MGL from HeLa cells with test compounds; endogenous in cells; host or cells: HeLa cells / cell homogenates", "T1 sequence (Q99685 1-303)": "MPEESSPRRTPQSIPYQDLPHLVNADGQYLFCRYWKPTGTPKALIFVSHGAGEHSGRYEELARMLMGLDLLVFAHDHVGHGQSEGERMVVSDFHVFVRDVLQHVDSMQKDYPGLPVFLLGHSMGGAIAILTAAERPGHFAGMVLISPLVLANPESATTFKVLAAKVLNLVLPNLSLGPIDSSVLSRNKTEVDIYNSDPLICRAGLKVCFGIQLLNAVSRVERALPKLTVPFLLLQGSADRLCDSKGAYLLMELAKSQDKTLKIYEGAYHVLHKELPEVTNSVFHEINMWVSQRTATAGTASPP", "assay": "In vitro MGL activity assay: [glycerol-1,3-3H]-oleyl glycerol cleavage by MGL from HeLa cells", "type": "biochemical", "conditions": "300 nM [Glycerol-1,3-3H]-oleyl glycerol, one hour", "source_text": "(§1) MGL is the predominant hydrolase in HeLa cells/cell homogenates.", "units": {"IC50": "nM"}}
{"smiles": "C[C@H]1c2nn(C)c(-c3cc(F)c(F)c(F)c3)c2CCN1C(=O)c1cccc2c1CCNC2", "note": "[Example 574, [(7S)-2,7-Dimethyl-3-(3,4,5-trifluorophenyl)-5,7-dihydro-4H-pyrazolo[3,4-c]pyridin-6-yl]-(1,2,3,4-tetrahydroisoquinolin-5-yl)methanone]", "IC50": 330}
{"smiles": "C[C@H]1c2nn(C)c(-c3cc(F)c(F)c(F)c3)c2CCN1C(=O)c1nccc2ncccc12", "note": "[Example 486]", "IC50": 13.7}
{"smiles": "Cc1nn2ccnc(C)c2c1C(=O)N1CCc2c(nn(C)c2-c2cc(F)c(F)c(F)c2)[C@@H]1C", "note": "[Example 446, (2,4-Dimethylpyrazolo[1,5-a]pyrazin-3-yl)-[(7S)-2,7-dimethyl-3-(3,4,5-trifluorophenyl)-5,7-dihydro-4H-pyrazolo[3,4-c]pyridin-6-yl] methanone]", "IC50": 34.1}
{"smiles": "C[C@H]1c2nn(C)c(-c3cc(F)c(F)c(F)c3)c2CCN1C(=O)c1cccc2c1CCOC2", "note": "[Example 576, [(7S)-2,7-Dimethyl-3-(3,4,5-trifluorophenyl)-5,7-dihydro-4H-pyrazolo[3,4-c]pyridin-6-yl]-isochroman-5-yl-methanone]", "IC50": 18.9}
{"smiles": "C[C@H]1c2nn(C)c(-c3cc(F)c(F)c(F)c3)c2CCN1C(=O)c1ncnc2ccccc12", "note": "[Example 482, [(7S)-2,7-Dimethyl-3-(3,4,5-trifluorophenyl)-5,7-dihydro-4H-pyrazolo[3,4-c]pyridin-6-yl]-quinazolin-4-yl-methanone]", "IC50": 6.22}
{"smiles": "C[C@H]1c2nn(C)c(-c3cccc4scnc34)c2CCN1C(=O)c1ccc2ncccc2c1", "note": "[Example 537, [(7S)-3-(1,3-Benzothiazol-4-yl)-2,7-dimethyl-5,7-dihydro-4H-pyrazolo[3,4-c]pyridin-6-yl]-(6-quinolyl)methanone]", "IC50": 33}
{"smiles": "C[C@H]1c2nn(C)c(-c3cc(F)c(F)c(F)c3)c2CCN1C(=O)c1cccc2[nH]c(=O)oc12", "note": "[Example 587, 7-[(7S)-2,7-Dimethyl-3-(3,4,5-trifluorophenyl)-5,7-dihydro-4H-pyrazolo[3,4-c]pyridine-6-carbonyl]-3H-1,3-benzoxazol-2-one]", "IC50": 13.4}
{"smiles": "C[C@H]1c2nn(C)c(-c3cc(F)c(F)c(F)c3)c2CCN1C(=O)c1ccnc2c1OCCO2", "note": "[Example 569, 2,3-Dihydro-[1,4]dioxino[2,3-b]pyridin-8-yl-[(7S)-2,7-dimethyl-3-(3,4,5-trifluorophenyl)-5,7-dihydro-4H-pyrazolo[3,4-c]pyridin-6-yl]methanone]", "IC50": 28.7}
{"smiles": "Cc1ccnn2nc(C3CC3)c(C(=O)N3CCc4c(nn(C)c4-c4cc(F)c(F)c(F)c4)[C@@H]3C)c12", "note": "[Example 444, (2-Cyclopropyl-4-methyl-pyrazolo[1,5-b]pyridazin-3-yl)-[(7S)-2,7-dimethyl-3-(3,4,5-trifluorophenyl)-5,7-dihydro-4H-pyrazolo[3,4-c]pyridin-6-yl]methanone]", "IC50": 2380}
{"smiles": "Cc1cccc2nc(C(F)(F)F)c(C(=O)N3CCc4c(nn(C)c4-c4cc(F)c(F)c(F)c4)[C@@H]3C)n12", "note": "[Example 414, [(7S)-2,7-Dimethyl-3-(3,4,5-trifluorophenyl)-5,7-dihydro-4H-pyrazolo[3,4-c]pyridin-6-yl]-[5-methyl-2-(trifluoromethyl)imidazo[1,2-a]pyridin-3-yl]methanone]", "IC50": 20.4}
{"target": "T1, human MGL from HeLa cells", "assay": "In vitro MGL activity assay: [glycerol-1,3-3H]-oleyl glycerol cleavage by MGL from HeLa cells", "type": "biochemical", "conditions": "300 nM [Glycerol-1,3-3H]-oleyl glycerol, one hour incubation", "source_text": "as §1", "units": {"IC50": "nM"}}
{"smiles": "Cn1nc2c(c1-c1ccccc1)CCN(C(=O)c1cccc3cnccc13)C2", "note": "[Example 92, Isoquinolin-5-yl(2-methyl-3-phenyl-2,4,5,7-tetrahydro-6H-pyrazolo[3,4-c]pyridin-6-yl)methanone]", "IC50": 108}
{"smiles": "C[C@H]1c2nn(C)c(-c3cc(F)c(F)c(F)c3)c2CCN1C(=O)c1cnc2c(cnn2C)c1", "note": "[Example 231, (S)-(2,7-Dimethyl-3-(3,4,5-trifluorophenyl)-2,4,5,7-tetrahydro-6H-pyrazolo[3,4-c]pyridin-6-yl)(1-methyl-1H-pyrazolo[3,4-b]pyridin-5-yl)methanone]", "IC50": 124}
{"smiles": "Cn1nc2c(c1-c1ccccc1)CCN(C(=O)c1c[nH]c3c(Cl)cccc13)C2", "note": "[Example 48, (7-Chloro-1H-indol-3-yl)(2-methyl-3-phenyl-2,4,5,7-tetrahydro-6H-pyrazolo[3,4-c]pyridin-6-yl)methanone]", "IC50": 103}
{"smiles": "C[C@H]1c2nn(C)c(-c3cc(F)cc(F)c3)c2CCN1C(=O)c1ccc2nccnc2c1", "note": "(single isomer, unassigned) [Example 168]", "IC50": 7.04}
{"smiles": "C[C@H]1c2nn(C)c(-c3cc(F)c(F)c(F)c3)c2CCN1C(=O)c1cccc2cccnc12", "note": "[Example 236, (S)-(2,7-Dimethyl-3-(3,4,5-trifluorophenyl)-2,4,5,7-tetrahydro-6H-pyrazolo[3,4-c]pyridin-6-yl)(quinolin-8-yl)methanone]", "IC50": 5.79}
{"smiles": "COc1ccc(-c2c3c(nn2C)[C@H](C)N(C(=O)c2ccc4nccnc4c2)CC3)cc1Cl", "note": "[Example 188, (S)-(3-(3-Chloro-4-methoxyphenyl)-2,7-dimethyl-2,4,5,7-tetrahydro-6H-pyrazolo[3,4-c]pyridin-6-yl)(quinoxalin-6-yl)methanone]", "IC50": 105}
{"smiles": "C[C@H]1c2nn(C)c(-c3cc(F)c(F)c(F)c3)c2CCN1C(=O)c1cc(-c2cnn(C)c2)ccc1F", "note": "[Example 274, [(7S)-2,7-Dimethyl-3-(3,4,5-trifluorophenyl)-5,7-dihydro-4H-pyrazolo[3,4-c]pyridin-6-yl]-[2-fluoro-5-(1-methylpyrazol-4-yl)phenyl]methanone]", "IC50": 13.7}
{"smiles": "CN1CCOc2cc(C(=O)N3CCc4c(nn(C)c4-c4ccccc4)C3)ccc21", "note": "[Example 27, (4-Methyl-3,4-dihydro-2H-benzo[b][1,4]oxazin-7-yl)(2-methyl-3-phenyl-2,4,5,7-tetrahydro-6H-pyrazolo[3,4-c]pyridin-6-yl)methanone]", "IC50": 290}
{"smiles": "C[C@H]1c2nn(C)c(-c3cncc(F)c3)c2CCN1C(=O)c1ccc2nccnc2c1", "note": "[Example 109, (S)-(3-(5-Fluoropyridin-3-yl)-2,7-dimethyl-2,4,5,7-tetrahydro-6H-pyrazolo[3,4-c]pyridin-6-yl)(quinoxalin-6-yl)methanone]", "IC50": 721}
{"smiles": "C[C@H]1c2nn(C)c(-c3cc(F)cc(F)c3)c2CCN1C(=O)c1ccccc1OCCF", "note": "[Example 137, [(7S)-3-(3,5-Difluorophenyl)-2,7-dimethyl-5,7-dihydro-4H-pyrazolo[3,4-c]pyridin-6-yl]-[2-(2-fluoroethoxy)phenyl]methanone]", "IC50": 240}
{"smiles": "C[C@H]1c2nn(C)c(-c3cc(F)c(F)c(F)c3)c2CCN1C(=O)c1cccc(-c2cc[nH]n2)c1", "note": "[Example 270, [(7S)-2,7-Dimethyl-3-(3,4,5-trifluorophenyl)-5,7-dihydro-4H-pyrazolo[3,4-c]pyridin-6-yl]-[3-(1H-pyrazol-3-yl)phenyl]methanone]", "IC50": 9.07}
{"smiles": "CC1c2nn(C)c(-c3ccccc3)c2CCN1C(=O)c1ccc2ncccc2c1", "note": "(racemic) [Example 110, (2,7-Dimethyl-3-phenyl-2,4,5,7-tetrahydro-6H-pyrazolo[3,4-c]pyridin-6-yl)(quinolin-6-yl)methanone]", "IC50": 19.9}
{"smiles": "Cn1nc2c(c1-c1ccccc1)CCN(C(=O)c1ccnc3c(F)cccc13)C2", "note": "[Example 96, (8-Fluoroquinolin-4-yl)(2-methyl-3-phenyl-2,4,5,7-tetrahydro-6H-pyrazolo[3,4-c]pyridin-6-yl)methanone]", "IC50": 258}
{"smiles": "C[C@H]1c2nn(C)c(-c3cc(F)c(F)c(F)c3)c2CCN1C(=O)c1cccc2cnn(C)c12", "note": "[Example 209, (S)-(2,7-Dimethyl-3-(3,4,5-trifluorophenyl)-2,4,5,7-tetrahydro-6H-pyrazolo[3,4-c]pyridin-6-yl)(1-methyl-1H-indazol-7-yl)methanone]", "IC50": 11.1}
{"smiles": "C[C@H]1c2nn(C)c(-c3cc(F)c(F)c(F)c3)c2CCN1C(=O)c1ccc2ncccc2c1", "note": "[Example 234, (S)-(2,7-Dimethyl-3-(3,4,5-trifluorophenyl)-2,4,5,7-tetrahydro-6H-pyrazolo[3,4-c]pyridin-6-yl)(quinolin-6-yl)methanone]", "IC50": 4.71}
{"smiles": "C[C@H]1c2nn(C)c(-c3cccc(Cl)c3)c2CCN1C(=O)c1ccc2ncccc2n1", "note": "[Example 131, (S)-(3-(3-Chlorophenyl)-2,7-dimethyl-2,4,5,7-tetrahydro-6H-pyrazolo[3,4-c]pyridin-6-yl)(1,5-naphthyridin-2-yl)methanone]", "IC50": 46.2}
{"smiles": "Cn1nc2c(c1-c1ccccc1)CCN(C(=O)c1ccn3cncc3c1)C2", "note": "[Example 78, Imidazo[1,5-a]pyridin-7-yl(2-methyl-3-phenyl-2,4,5,7-tetrahydro-6H-pyrazolo[3,4-c]pyridin-6-yl)methanone]", "IC50": 2000}
{"smiles": "COc1nccc(C(=O)N2CCc3c(nn(C)c3-c3cc(F)c(F)c(F)c3)[C@@H]2C)c1C", "note": "[Example 314, [(7S)-2,7-Dimethyl-3-(3,4,5-trifluorophenyl)-5,7-dihydro-4H-pyrazolo[3,4-c]pyridin-6-yl]-(2-methoxy-3-methyl-4-pyridyl)methanone]", "IC50": 20.6}
{"smiles": "C[C@H]1c2nn(C(F)F)c(-c3cc(F)c(F)c(F)c3)c2CCN1C(=O)c1ccc2ncccc2c1", "note": "[Example 232, (S)-(2-(Difluoromethyl)-7-methyl-3-(3,4,5-trifluorophenyl)-2,4,5,7-tetrahydro-6H-pyrazolo[3,4-c]pyridin-6-yl)(quinolin-6-yl)methanone]", "IC50": 5.57}
{"smiles": "Cc1cc(C(=O)N2CCc3c(nn(C)c3-c3cc(F)c(F)c(F)c3)[C@@H]2C)c2cccc(F)c2n1", "note": "[Example 241, (S)-(2,7-Dimethyl-3-(3,4,5-trifluorophenyl)-2,4,5,7-tetrahydro-6H-pyrazolo[3,4-c]pyridin-6-yl)(8-fluoro-2-methylquinolin-4-yl)methanone]", "IC50": 6.56}
